Measurements from US20110092544A1, “FUNGICIDAL PYRIDINES” (E.I. DU PONT DE nemours and company, priority 2008, published 2011).

Assays:
Assay type in all cases: in vivo
[1] = tested on: Puccinia recondite f. sp. tritici; test: Test B: wheat leaf rust, preventive spray on wheat seedlings, visual disease rating; conditions: for pest or weed control at 200 ppm: 192 h
Procedure, shortened: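 Wheat seedlings were sprayed to run-off with compound suspension, 200 ppm (≈500 g/ha) or 40 ppm where marked, containing surfactant in acetone/water. Inoculation with Puccinia recondita spores followed one day later, then 24 h in saturated humidity at 20° C and 7 days at 20° C. Disease control was rated visually, 0–100% versus controls.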

[2] = tested on: Erysiphe graminis f. sp. tritici; test: Test A: wheat powdery mildew, preventive spray on wheat seedlings, visual disease rating; conditions: for pest or weed control at 200 ppm: Blumeria graminis, 192 h
Procedure, shortened: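 Acetone/water (50/50) suspension with 250 ppm surfactant sprayed to run-off on wheat seedlings (200 ppm ≈ 500 g/ha); inoculated next day with E. graminis spore dust. Incubated 8 days at 20° C, then visually rated 0–100% disease control versus untreated controls; tests at 200 ppm or 40 ppm.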

Septoria tritici = test: Test C: wheat leaf blotch, preventive spray on wheat seedlings, visual disease rating; conditions: for pest or weed control at 200 ppm: Zymoseptoria tritici, 504 h
Procedure, shortened: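 Wheat seedlings sprayed to run-off with compound in acetone/water plus 250 ppm surfactant at 200 ppm (≈500 g/ha), or 40 ppm where marked; inoculated with Septoria tritici next day. Held saturated at 20 °C for 48 h, then 19 days at 20 °C; disease control rated visually 0–100 versus controls.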

Botrytis cinerea = test: Test F: tomato botrytis, preventive spray on tomato seedlings, visual disease rating; conditions: for pest or weed control at 200 ppm: Botrytis cinerea, 120 h
Procedure, shortened: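 Tomato seedlings sprayed to run-off with compound suspended in acetone/water (50/50) plus 250 ppm Trem 014, at 200 ppm (≈500 g/ha) or 40 ppm where marked. Inoculated next day with B. cinerea spores, 48 h saturated atmosphere at 20 °C, then 3 days at 24 °C. Visual rating, 0–100% disease control relative to controls.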

Plasmopara viticola = test: Test H: grape downy mildew, spray after inoculation of grape seedlings, visual disease rating; conditions: 200 ppm, 100 = 100% disease control, 0 = no control; for pest or weed control at 200 ppm: Plasmopara viticola, 192 h
Source text: General protocol for preparing test suspensions for Tests A-H: The test compounds were first dissolved in acetone in an amount equal to 3% of the final volume and then suspended at the desired concentration (in ppm) in acetone and purified water (50/50 mix) containing 250 ppm of the surfactant Trem® 014 (polyhydric alcohol esters). The resulting test suspensions were then used in tests A-H. Spraying a 200 ppm test suspension to the point of run-off on the test plants was the equivalent of a rate of 500 g/ha.
Grape seedlings were inoculated with a spore suspension of Plasmopara viticola (the causal agent of grape downy mildew) and incubated in a saturated atmosphere at 20° C. for 24 h. After a short drying period, the test suspension was sprayed to the point of run-off on the grape seedlings, and then moved to a growth chamber at 20° C. for 6 days, after which time the test units were placed back into a saturated atmosphere at 20° C. for 24 h. Upon removal, disease ratings were visually made.
Results for Tests A-H are given in Table A. In the table, a rating of 100 indicates 100% disease control and a rating of 0 indicates no disease control (relative to the controls). A dash (-) indicates no test results. All results are for compounds tested at 200 ppm except where the compound number is followed by “*” which indicates the compound was tested at 40 ppm.

Alternaria solani = test: Test E: tomato early blight, preventive spray on tomato seedlings, visual disease rating; conditions: for pest or weed control at 200 ppm: Alternaria solani, 168 h
Procedure, shortened: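 Seedlings sprayed to run-off with compound in acetone/water plus 250 ppm Trem 014 (200 ppm ≈ 500 g/ha), inoculated with spores next day. Held 48 h saturated at 27 °C, then 5 days at 20 °C; visual rating 0–100% disease control relative to controls.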

Septoria nodorum = test: Test D: wheat glume blotch, preventive spray on wheat seedlings, visual disease rating; conditions: for pest or weed control at 200 ppm: Parastagonospora nodorum, 216 h
Procedure, shortened: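 Compounds in 3% acetone, then 50/50 acetone–water with 250 ppm Trem 014, sprayed to run-off at 200 ppm (500 g/ha; some at 40 ppm) one day before spore inoculation. Held 48 h saturated at 20 °C, then 7 days at 20 °C; visual rating as % disease control vs untreated (0–100).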

[3] = 200 ppm, 100 = 100% disease control, 0 = no control
[4] = 40 ppm (compound number followed by *)

## COc1cc(OC)cc(-c2c(C(C)=O)cnc(C)c2-c2ccc(F)cc2)c1 [Compound 12, 1-[4-(3,5-dimethoxyphenyl)-5-(4-fluorophenyl)-6-methyl-3-pyridinyl]ethanone]
[1]; [3]
  pest or weed control at 200 ppm: 93%
[2]; [3]
  pest or weed control at 200 ppm: 95%
Septoria tritici; [3]
  pest or weed control at 200 ppm: 92%
Botrytis cinerea; [3]
  pest or weed control at 200 ppm: 99%
Plasmopara viticola
  pest or weed control at 200 ppm: 0%
Alternaria solani; [3]
  pest or weed control at 200 ppm: 90%
Septoria nodorum; [3]
  pest or weed control at 200 ppm: 0%

## CCOC(=O)c1cnc(C)c(-c2ccccc2)c1-c1cc(OC)cc(OC)c1 [Compound 1]
[1]; [3]
  Test B rating (% disease control): 28%
[2]; [3]
  Test A rating (% disease control): 96%
Botrytis cinerea; [3]
  Test F rating (% disease control): 99%
Plasmopara viticola
  Test H rating (% disease control): 0%
Alternaria solani; [3]
  Test E rating (% disease control): 0%
Septoria nodorum; [3]
  Test D rating (% disease control): 0%

## CCc1ncc(C(C)(C)O)c(-c2cc(OC)cc(OC)c2)c1-c1ccccc1 [Compound 28]
[1]; [3]
  Test B rating (% disease control): 28%
[2]; [3]
  Test A rating (% disease control): 96%
Septoria tritici; [3]
  Test C rating (% disease control): 100%
Botrytis cinerea; [3]
  Test F rating (% disease control): 99%
Plasmopara viticola
  Test H rating (% disease control): 0%
Alternaria solani; [3]
  Test E rating (% disease control): 93%
Septoria nodorum; [3]
  Test D rating (% disease control): 0%

## CCOC(=O)c1cnc(C)c(-c2ccccc2)c1-c1cc(OC)cc(OC)c1F [Compound 26]
[1]; [3]
  Test B rating (% disease control): 68%
[2]; [3]
  Test A rating (% disease control): 94%
Septoria tritici; [3]
  Test C rating (% disease control): 86%
Botrytis cinerea; [3]
  Test F rating (% disease control): 98%
Plasmopara viticola
  Test H rating (% disease control): 0%
Alternaria solani; [3]
  Test E rating (% disease control): 0%
Septoria nodorum; [3]
  Test D rating (% disease control): 0%

## CCC(C)(O)c1cnc(C)c(-c2ccc(F)cc2)c1-c1cc(OC)cc(OC)c1 (stereo not drawn) [Compound 14]
[1]; [3]
  Test B rating (% disease control): 98%
[2]; [3]
  Test A rating (% disease control): 97%
Septoria tritici; [3]
  Test C rating (% disease control): 99%
Botrytis cinerea; [3]
  Test F rating (% disease control): 99%
Plasmopara viticola
  Test H rating (% disease control): 0%
Alternaria solani; [3]
  Test E rating (% disease control): 99%
Septoria nodorum; [3]
  Test D rating (% disease control): 0%

## COc1cc(OC)cc(-c2c(C(C)(C)O)cnc(C)c2-c2ccc(F)cc2)c1 [Compound 13, 4-(3,5-dimethoxyphenyl)-5-(4-fluorophenyl)-α,α,6-trimethyl-3-pyridinemethanol]
[1]; [3]
  pest or weed control at 200 ppm: 99%
[2]; [3]
  pest or weed control at 200 ppm: 96%
Septoria tritici; [3]
  pest or weed control at 200 ppm: 100%
Botrytis cinerea; [3]
  pest or weed control at 200 ppm: 99%
Plasmopara viticola
  pest or weed control at 200 ppm: 0%
Alternaria solani; [3]
  pest or weed control at 200 ppm: 100%
Septoria nodorum; [3]
  pest or weed control at 200 ppm: 0%

## COc1cc(OC)cc(-c2c(-c3ccccc3F)c[n+]([O-])c(C)c2-c2ccccc2)c1 [Compound 33]
[2]; [3]
  Test A rating (% disease control): 79%
Botrytis cinerea; [3]
  Test F rating (% disease control): 95%
Plasmopara viticola
  Test H rating (% disease control): 0%
Alternaria solani; [3]
  Test E rating (% disease control): 100%

## COc1cc(OC)cc(-c2c(C(C)(C)O)cnc(C)c2-c2c(F)ccc(OC)c2F)c1 [Compound 106]
[1]; [3]
  Test B rating (% disease control): 100%
[2]; [3]
  Test A rating (% disease control): 96%
Septoria tritici; [3]
  Test C rating (% disease control): 98%
Botrytis cinerea; [3]
  Test F rating (% disease control): 98%
Alternaria solani; [3]
  Test E rating (% disease control): 99%
Septoria nodorum; [3]
  Test D rating (% disease control): 0%

## COc1ccc(-c2c(C)ncc(C(C)(C)O)c2-c2cc(OC)cc(OC)c2)cc1 [Compound 62]
[1]; [3]
  Test B rating (% disease control): 100%
[2]; [3]
  Test A rating (% disease control): 80%
Septoria tritici; [3]
  Test C rating (% disease control): 94%
Botrytis cinerea; [3]
  Test F rating (% disease control): 95%
Alternaria solani; [3]
  Test E rating (% disease control): 100%
Septoria nodorum; [3]
  Test D rating (% disease control): 73%

## C=C(C)c1cnc(C)c(-c2c(F)ccc(F)c2F)c1-c1cc(OC)cc(OC)c1 [Compound 77]
[1]; [4]
  Test B rating (% disease control): 99%
[2]; [4]
  Test A rating (% disease control): 100%
Septoria tritici; [4]
  Test C rating (% disease control): 92%
Botrytis cinerea; [4]
  Test F rating (% disease control): 84%
Alternaria solani; [4]
  Test E rating (% disease control): 99%
Septoria nodorum; [4]
  Test D rating (% disease control): 0%

## COc1cc(OC)cc(-c2c(C(C)C)cnc(C)c2-c2c(F)cc(OC)cc2F)c1 [Compound 75]
[1]; [4]
  Test B rating (% disease control): 100%
[2]; [4]
  Test A rating (% disease control): 99%
Septoria tritici; [4]
  Test C rating (% disease control): 96%
Botrytis cinerea; [4]
  Test F rating (% disease control): 99%
Alternaria solani; [4]
  Test E rating (% disease control): 100%
Septoria nodorum; [4]
  Test D rating (% disease control): 99%

## COc1cc(OC)c(Cl)c(-c2c(-c3ccccc3F)cnc(C)c2-c2ccc(F)cc2)c1 [Compound 126]
[1]; [4]
  Test B rating (% disease control): 100%
[2]; [4]
  Test A rating (% disease control): 90%
Septoria tritici; [4]
  Test C rating (% disease control): 99%
Botrytis cinerea; [4]
  Test F rating (% disease control): 100%
Alternaria solani; [4]
  Test E rating (% disease control): 97%
Septoria nodorum; [4]
  Test D rating (% disease control): 100%

## COc1cc(OC)cc(-c2c(C(C)=O)cnc(C)c2-c2c(F)ccc(OC)c2F)c1 [Compound 105]
[1]; [3]
  Test B rating (% disease control): 99%
[2]; [3]
  Test A rating (% disease control): 100%
Septoria tritici; [3]
  Test C rating (% disease control): 93%
Botrytis cinerea; [3]
  Test F rating (% disease control): 98%
Alternaria solani; [3]
  Test E rating (% disease control): 0%
Septoria nodorum; [3]
  Test D rating (% disease control): 0%

## C=C(C)c1cnc(C)c(-c2c(F)cc(OC)cc2F)c1-c1cc(OC)cc(OC)c1 [Compound 74]
[1]; [3]
  Test B rating (% disease control): 100%
[2]; [3]
  Test A rating (% disease control): 100%
Septoria tritici; [3]
  Test C rating (% disease control): 98%
Botrytis cinerea; [3]
  Test F rating (% disease control): 98%
Alternaria solani; [3]
  Test E rating (% disease control): 100%
Septoria nodorum; [3]
  Test D rating (% disease control): 100%

## Cc1ncc(-c2ccccc2F)c(-c2cc(OC(F)F)cc(OC(F)F)c2)c1-c1ccc(F)cc1 [Compound 101]
[1]; [3]
  Test B rating (% disease control): 89%
[2]; [3]
  Test A rating (% disease control): 82%
Septoria tritici; [3]
  Test C rating (% disease control): 96%
Botrytis cinerea; [3]
  Test F rating (% disease control): 96%
Alternaria solani; [3]
  Test E rating (% disease control): 0%
Septoria nodorum; [3]
  Test D rating (% disease control): 0%

## COc1cc(OC)cc(-c2c(-c3ccc(F)cc3)cnc(C)c2-c2ccc(F)cc2)c1 [Compound 88]
[1]; [4]
  Test B rating (% disease control): 53%
[2]; [4]
  Test A rating (% disease control): 58%
Septoria tritici; [4]
  Test C rating (% disease control): 77%
Botrytis cinerea; [4]
  Test F rating (% disease control): 99%
Alternaria solani; [4]
  Test E rating (% disease control): 0%
Septoria nodorum; [4]
  Test D rating (% disease control): 0%

## COc1cc(OC)cc(-c2c(C(C)=O)cnc(C)c2-c2ccccc2)c1 [Compound 2]
[1]; [3]
  Test B rating (% disease control): 0%
[2]; [3]
  Test A rating (% disease control): 95%
Botrytis cinerea; [3]
  Test F rating (% disease control): 99%
Plasmopara viticola
  Test H rating (% disease control): 0%
Alternaria solani; [3]
  Test E rating (% disease control): 0%
Septoria nodorum; [3]
  Test D rating (% disease control): 0%

## COc1cc(OC)cc(-c2c(C(C)(C)O)cnc(C)c2-c2c(F)ccc(F)c2F)c1 [Compound 69]
[1]; [3]
  Test B rating (% disease control): 100%
[2]; [3]
  Test A rating (% disease control): 99%
Septoria tritici; [3]
  Test C rating (% disease control): 94%
Botrytis cinerea; [3]
  Test F rating (% disease control): 91%
Alternaria solani; [3]
  Test E rating (% disease control): 100%
Septoria nodorum; [3]
  Test D rating (% disease control): 86%

## CCC(C)c1cnc(C)c(-c2c(F)cc(F)cc2F)c1-c1cc(OC)cc(OC)c1 (stereo not drawn) [Compound 73]
[1]; [4]
  Test B rating (% disease control): 100%
[2]; [4]
  Test A rating (% disease control): 100%
Septoria tritici; [4]
  Test C rating (% disease control): 94%
Botrytis cinerea; [4]
  Test F rating (% disease control): 99%
Alternaria solani; [4]
  Test E rating (% disease control): 91%
Septoria nodorum; [4]
  Test D rating (% disease control): 0%

## CCOC(=O)c1c[n+]([O-])c(C)c(-c2ccccc2)c1-c1cc(OC)cc(OC)c1 [Compound 51]
[1]; [3]
  Test B rating (% disease control): 0%
[2]; [3]
  Test A rating (% disease control): 76%
Botrytis cinerea; [3]
  Test F rating (% disease control): 0%
Plasmopara viticola
  Test H rating (% disease control): 0%
Alternaria solani; [3]
  Test E rating (% disease control): 0%
Septoria nodorum; [3]
  Test D rating (% disease control): 0%
